According to US7790899B2, “Synthesis of N-(4-fluorobenzyl)-N-(1-methylpiperidin-4-yl)-N′-(4-(2-methylpropyloxy)phenylmethyl)carbamide and its tartrate salt and crystalline forms” (ACADIA Pharmaceuticals, Inc., priority 2004, dated 2010):

How the values were obtained:
[1] = Stability of crystalline Form C at 60% RH and 25° C.; format: physicochemical; design: key to Powder X-Ray Diffraction (PXRD): C = Conforms with Reference; details: for Assay (Active Ingredient %) / Individual Related Substances (%) / Moisture, KF (%) / Powder X-Ray Diffraction (PXRD) / Product Appearance / Total Related Substances (%) / Impurity D: 25° C./60% RH
Method: (§1) A first batch of crystalline Form C was exposed to 60% RH (relative humidity) at 25° C. for 12 months and a second batch was exposed to 75% RH at 40° C. for 6 months. No changes in polymorphic purities were observed under all the conditions tested, and Form C was the only polymorph detected. The batches were tested for appearance, Total Drug Assay, Related Substances, moisture, and the presence of Impurity D. Appearance of the bulk drug substance was evaluated by visual inspection for color homogeneity, foreign material and texture. Total Drug Assay was determined on an HPLC system with UV detection at 226 nm. A Waters XTerra RP185 μm (4.6×250 mm) column was used at 30° C. The mobile phase was acetonitrile: 5 mM ammonium acetate, pH 10.0 (46:54 v/v). The injection volume aws 20 μL. The run time was 30 min with a flow rate of 1.0 mL/min. Related Substances were analyzed utilizing gradient reversed-phase HPLC with UV detection at 226 nm. A Waters Symmetry C183.5 μm, (150×4.6 mm) column was used at 35° C. Mobile phase A was water with 0.1% TFA and mobile phase B was acetonitrile with 0.1% TFA. The injection volume was 20 μL. The run time was 35 min with a flow rate of 1.0 mL/min. Related substances were quantitated by peak area percent. Moisture was determined with a 737 Karl Fischer Coulometric titrator. The apparatus was operated using Hydranal-Coulomat AG and Hydranal standard-0.1% water check solution-Coulomat AG.

[2] = Solubility statements in the description
[3] = Stability test, thermal treatment (sealed ampoules, 100° C., HPLC purity); format: physicochemical; details: 1 week
Method: (§2) HPLC: HPLC measurements were carried out with a HP LC1090M, Column Symmetry C18, 3.0·150 mm.
The compounds of Examples 3(b) (polymorph A), 25 (polymorph B), and 36 (polymorph C) were placed in sealed ampoules and exposed for 1 week to 100° C. […] The products where analyzed by HPLC and the purity was detected to indicate chemical stability via decomposition.

[4] = Stability of crystalline Form C at 75% RH and 40° C.; format: physicochemical; design: key to Powder X-Ray Diffraction (PXRD): C = Conforms with Reference; details: 40° C./75% RH
Method: as §1

[5] = Water absorption and behaviour on exposure to relative humidity; format: physicochemical
[6] = Stability of the crystal forms (general findings); format: physicochemical
[7] = Stability test, exposure to humidity (open containers, 60° C., 75% relative humidity); format: physicochemical; details: 1 week and 2 weeks
Method: as §2
The compounds of Examples 3(b) (polymorph A), 25 (polymorph B), and 36 (polymorph C) were placed in open containers and exposed 1 week and 2 weeks at 60° C. and 75% relative humidity. In polymorph A, a water content of 2.8% was detected and the HPLC purity was 80%.

[8] = physchem; details: aqueous solubility
[9] = Approximate solubility of Form A: saturated solutions, gravimetric determination after solvent removal; format: physicochemical
Method: Approximate solubility was measured by preparation of saturated solutions in various solvents and gravimetric determination of dissolved substance after solvent removal.

## CC(C)COc1ccc(CNC(=O)N(Cc2ccc(F)cc2)C2CCN(C)CC2)cc1 [Form C, N-(4-fluorobenzyl)-N-(1-methylpiperidin-4-yl)-N′-(4-(2-methylpropyloxy)phenylmethyl)carbamide hemi-tartrate]
[1]; 0 M
  Assay (Active Ingredient %): 99.8%
  Individual Related Substances (%): 0.06%
  Moisture, KF (%): 0.3%
  Powder X-Ray Diffraction (PXRD): C
  Product Appearance: Conforms
  Total Related Substances (%): 0.06%
[1]; 1 M
  Assay (Active Ingredient %): 99.8%
  Individual Related Substances (%): 0.05%
  Moisture, KF (%): <0.1%
  Powder X-Ray Diffraction (PXRD): C
  Product Appearance: Conforms
  Total Related Substances (%): 0.05%
[1]; 3 M
  Assay (Active Ingredient %): 99.7%
  Individual Related Substances (%): <0.05%
  Moisture, KF (%): <0.1%
  Product Appearance: Conforms
  Total Related Substances (%): <0.05%
[1]; 6 M
  Assay (Active Ingredient %): 99.8%
  Individual Related Substances (%): 0.06%
  Moisture, KF (%): 0.2%
  Powder X-Ray Diffraction (PXRD): C
  Product Appearance: Conforms
  Total Related Substances (%): <0.06%
[1]; 9 M
  Assay (Active Ingredient %): 99.4%
  Impurity D: 0.2
  Individual Related Substances (%): <0.05%
  Moisture, KF (%): <0.1%
  Powder X-Ray Diffraction (PXRD): C
  Product Appearance: Conforms
  Total Related Substances (%): <0.05%
[1]; 12 M
  Assay (Active Ingredient %): 99.1%
  Impurity D: 0.2
  Individual Related Substances (%): 0.05%
  Moisture, KF (%): <0.1%
  Powder X-Ray Diffraction (PXRD): C
  Product Appearance: Conforms
  Total Related Substances (%): 0.05%
[1]; 60% RH at 25° C. for 12 months and 75% RH at 40° C. for 6 months
  Changes in polymorphic purities: No changes
[2]; depends on the pH in aqueous environments
  aqueous solubility: 50000 to 100000 µg/mL
[2]
  Solubility in water or aqueous systems (in words): very high
[3]
  HPLC purity after thermal treatment: 99.7%
  State of the material after thermal treatment: substantially unchanged
[4]; 0 M
  Assay (Active Ingredient %): 99.8%
  Individual Related Substances (%): 0.06%
  Moisture, KF (%): 0.3%
  Powder X-Ray Diffraction (PXRD): C
  Total Related Substances (%): 0.06%
[4]; 1 M
  Assay (Active Ingredient %): 99.8%
  Individual Related Substances (%): 0.05%
  Moisture, KF (%): <0.1%
  Powder X-Ray Diffraction (PXRD): C
  Total Related Substances (%): 0.05%
[4]; 3 M
  Assay (Active Ingredient %): 99.5%
  Individual Related Substances (%): <0.05%
  Moisture, KF (%): <0.1%
  Total Related Substances (%): <0.05%
[4]; 6 M
  Assay (Active Ingredient %): 99.7%
  Individual Related Substances (%): 0.23%
  Moisture, KF (%): 0.1%
  Powder X-Ray Diffraction (PXRD): C
  Total Related Substances (%): 0.23%
[5]
  Dynamic pour absorption experiments: water absorption: does not absorb water
[5]; 75% relative humidity, open container
  Stability in an open container: stable
[5]; about 95% relative humidity
  Deliquescence or hygroscopicity: no deliquescence or hygroscopicity
[5]; at about 95% relative humidity
  Water absorption: about 1%
[6]
  Stability compared with all found crystal forms: most stable form
[7]
  Change of crystal form after exposure to humidity: remained unchanged
  HPLC purity after exposure to humidity: 99.7%

## CC(C)COc1ccc(CNC(=O)N(Cc2ccc(F)cc2)C2CCN(C)CC2)cc1 [Form E, N-(4-fluorobenzyl)-N-(1-methylpiperidin-4-yl)-N′-(4-(2-methylpropyloxy)phenylmethyl)carbamide hemi-tartrate]
[8]
  solubility: > 200000 µg/mL

## CC(C)COc1ccc(CNC(=O)N(Cc2ccc(F)cc2)C2CCN(C)CC2)cc1.CC(C)COc1ccc(CNC(=O)N(Cc2ccc(F)cc2)C2CCN(C)CC2)cc1.O=C(O)C(O)C(O)C(=O)O [Form A, N-(4-fluorobenzyl)-N-(1-methylpiperidin-4-yl)-N′-(4-(2-methylpropyloxy)phenylmethyl)carbamide hemi-tartrate]
[2]; tetrahydrofuran, reflux temperature
  amount that can be dissolved in tetrahydrofuran: about 200 mg/ml
[2]
  Solubility in water or aqueous systems (in words): well soluble
[3]
  State of the material after thermal treatment: formed a deliquescent compact material
[3]; listed as polymorph A
  HPLC purity after thermal treatment: 25.9%
[5]; above 75% relative humidity
  Water uptake when exposed to humidity: considerable water uptake
[5]; relative humidities between 20% and 75%
  Stability under ambient water partial pressures: sufficient stability
[6]; ambient temperatures
  Stability at ambient temperatures: stable
[7]; listed as polymorph A
  HPLC purity after exposure to humidity: 80%
  water content after exposure to humidity: 2.8%
[9]; aqueous with cosolvent or surfactant or cyclodextrin, thermodynamic from solid, acetone/water (1:1), read-out: Solubility
  solubility: > 200000 µg/mL
[9]; ethanol
  solubility: >10000 µg/mL
[9]; organic solvent or mixture, thermodynamic from solid, 1,4-dioxane, read-out: Solubility
  solubility: ~2000 µg/mL
[9]; organic solvent or mixture, thermodynamic from solid, 2-propanol, read-out: Solubility
  solubility: ~1000 µg/mL
[9]; organic solvent or mixture, thermodynamic from solid, 2-propanol/water (9:1), read-out: Solubility
  solubility: < 1000 µg/mL
[9]; organic solvent or mixture, thermodynamic from solid, acetone, read-out: Solubility
  solubility: ~2000 µg/mL
[9]; organic solvent or mixture, thermodynamic from solid, acetonitrile, read-out: Solubility
  solubility: ~2000 µg/mL
[9]; organic solvent or mixture, thermodynamic from solid, dichloromethane, read-out: Solubility
  solubility: > 30000 µg/mL
[9]; organic solvent or mixture, thermodynamic from solid, dimethylsulfoxide, read-out: Solubility
  solubility: > 200000 µg/mL
[9]; organic solvent or mixture, thermodynamic from solid, ethyl acetate, read-out: Solubility
  solubility: < 1000 µg/mL
[9]; organic solvent or mixture, thermodynamic from solid, methanol, read-out: Solubility
  solubility: > 100000 µg/mL
[9]; organic solvent or mixture, thermodynamic from solid, methyl ethyl ketone, read-out: Solubility
  solubility: < 1000 µg/mL
[9]; organic solvent or mixture, thermodynamic from solid, t-butyl methyl ether, read-out: Solubility
  solubility: < 1000 µg/mL
[9]; organic solvent or mixture, thermodynamic from solid, toluene, read-out: Solubility
  solubility: < 1000 µg/mL
[9]; tetrahydrofuran
  solubility: >5000 µg/mL
[9]; thermodynamic from solid, water, read-out: Solubility
  solubility: > 300000 µg/mL
